Consider three compounds from patent publication EP0214101A2, “Use of iron(III) chelators of the type desferrioxamine-B and desferriferrithiocine in the treatment of malaria” (CIBA-GEIGY AG, priority 1985, dated 1987).

A word on the IC50: it is the point on the concentration scale where inhibition reaches its midpoint. A low value points to inhibition by little substance.

Series [1] concerns Plasmodium falciparum in Kultur an menschlichen Erythrozyten. Conditions: in vitro culture; cited from earlier work.
Series [2] deals with Plasmodium falciparum T96 Zellinie A. In words: Growth inhibition of Plasmodium falciparum T96 cell line A (normal chloroquine sensitivity) in culture on human erythrocytes. Conditions: Erythrocyte, over 2 cycles. It counts as cell-based. From the text: (§1) • a) Durch konventionelles Züchten des Stammes Plasmodium falciparum T96 in einer 2 % (V/V) Suspension von humanen Erythrozyten wird der Grundorganismus-Zellinie A fortgepflanzt, welche eine normale Empfindlichkeit gegenüber Chloroquin aufweist. • b) Zellinie A des obigen Stammes wird unter analogen Standardbedingungen wie unter a) gezüchtet, jedoch mit Zusatz von immer ansteigenden Konzentrationen von Chloroquin, bis eine Chloroquinresistente Zellinie B resultiert, welche weiterhin in Kulturmedien mit einer 500 nM-Konzentration von Chloroquin andauernd normales Wachstum (dieselbe Wachstumsraten wie Zellinie A) aufweist.
• I. Die Züchtung von Testorganismen erfolgt unter den für Züchtung von Plasmodien üblichen Bedingungen auf einer 2 % Suspension von humanen Erythrozyten, supplementiert mit 50 mg/1 Hypoxanthin und gegebenenfalls unter Zugabe der getesteten Hemmsubstanz in gewünschter Konzentration. Die initiale Parasitämie (= der prozentuelle Anteil der zu Beginn von Plasmodien infizierten Erythrozyten) beträgt 1-2 %. Das Resultat (Hemmwirkung) wird als IC50 ausgewertet, d.h. jene Konzentration des Wirkstoffes, die eine Senkung der finalen Parasitämie um 50 %, d.h. eine 50%ige Hemmung des Wachstums, verursacht. • II. […]

The conditions of series [3]: very high doses; cited from earlier work.
Series [4] has as its system Plasmodium falciparum T96 Chloroquinresistente Zellinie B. Nature of the series: microbe, parasite or virus in culture. In kind it is cell-based. Conditions: for IC50: Plasmodium falciparum, Erythrocyte, over 2 cycles.
Description: as §1
• I. Die Züchtung von Testorganismen erfolgt unter den für Züchtung von Plasmodien üblichen Bedingungen auf einer 2 % Suspension von humanen Erythrozyten, supplementiert mit 50 mg/1 Hypoxanthin und gegebenenfalls unter Zugabe der getesteten Hemmsubstanz in gewünschter Konzentration. Die initiale Parasitämie (= der prozentuelle Anteil der zu Beginn von Plasmodien infizierten Erythrozyten) beträgt 1-2 %. Das Resultat (Hemmwirkung) wird als IC50 ausgewertet, d.h. jene Konzentration des Wirkstoffes, die eine Senkung der finalen Parasitämie um 50 %, d.h. eine 50%ige Hemmung des Wachstums, verursacht. • II. In einer alternativen Versuchsanordnung wird beim Einhalten aller übrigen Bedingungen ohne Zugabe von Hypoxanthin und mit einer initialen Parasitämie von 0,5 % gearbeitet.

Series [5] has as its system P. vinckei. Conditions: cited from earlier work.
Series [6] has as its system Bakterien. Conditions: cited from earlier work.

Like-named read-outs stand apart in the source and are kept apart here.

Turning to `CC(=O)N(O)CCCCCNC(=O)CCC(=O)N(O)CCCCCNC(=O)CCC(=O)N(O)CCCCCN` [Desferrioxamin B, 6,17,28-Trihydroxy-7,10,18,21,29-pentaoxo-6,11,17,22,28-pentaaza-triacontanylamin], the “Wachstum / Abtötung in vitro” value in series [1] is “nicht nur in ihrem Wachstum gehemmt, sondern auch getötet”. Further, the half-inhibitory concentration (IC50) in series [2] (Versuchsanordnung I) amounted to 17 ± 3 µM; in series [2] (Versuchsanordnung II), 5 µM; in series [4] (Versuchsanordnung I, with 400 nM Chloroquin added), 3 ± 1 µM; in series [4] (Versuchsanordnung I, without Chloroquin in test medium) it was 6 ± 1.5 µM; in series [4] (Versuchsanordnung II, without Chloroquin in test medium), 2 ± 1 µM. In addition, in series [3], the Toxikologie result is reported as “auch in sehr hohen Dosen toxikologisch einwandfrei”. In addition, the “Wirksamkeit gegen Chloroquin-resistenten Stamm im Vergleich zu normal empfindlichem Stamm” value in series [4] (comparison of resistant with sensitive strain grown under the same conditions) was “um fast eine Grössenordnung wirksamer”. The “Wachstum des Parasiten” value in series [5] (0,2 g/kg) is reported as “das Wachstum des Parasiten deutlich hemmt”; in series [5] (1,0 g/kg) it was “ihn vollständig tötet”. Also, in series [6], the “antibakterielle Wirksamkeit in vitro” value is reported as “gewisse allgemeine antibakterielle Wirksamkeit in vitro”.

Consider `CCN(CC)CCCC(C)Nc1ccnc2cc(Cl)ccc12` (stereo not drawn) [Chloroquin, 7-Chlor-4-(4-diethylamino-l-methylbutylamino)chinolin], for which the Vermehrungsfaktor in series [4] (Versuchsanordnung I with 500 nM Chloroquin, within 48 hours) was 7-9.

With `CC1(C(=O)O)CSC(c2ncccc2O)=N1` (stereo not shown) [Desferri-ferrithiocin, 2-(3-Hydroxy-2-pyridyl)-4-methyl-2-thiazolin-4-carbonsäure], the “antibakterielle Wirksamkeit in vitro” value in series [6] is listed as “gewisse allgemeine antibakterielle Wirksamkeit in vitro”.
